# Results from patent US20250000869A1, “TOPICAL COMPOSITIONS OF 2-PHENYL-3, 4-DIHYDROPYRROLO [2, L-F] [1, 2, 4] TRIAZINONE DERIVATIVES AND USES THEREOF” (TOPADUR PHARMA AG, priority 2021, published 2025).
# How the values were obtained:
# [1] = Solubility of Compound 1 in solvent systems comprising PEG400; format: physicochemical; conditions: room temperature, read-out: Determined Solubility
# Description: A solubility study of Compound 1 in solvent systems comprising PEG400 in various concentrations was effected.
# rat aortic rings = experiment: Relaxation of rat aortic rings; conditions: earlier effected measurements
# C57Bl/6J mice = experiment: Ulcer core perfusion of full thickness excisional cutaneous wounds by LSCI/LASCA; format: in vivo; conditions: single dose 25 μl per wound, almost all times of measurements
# Procedure: Effects of a single dose of Topical Composition A2, Topical Composition A4, and Vehicle Composition A, when administered on the perfusion of the ulcer core of full thickness excisional cutaneous wounds in C57B1/6J mice was investigated. Thus, Topical Compositions A2 and A4 were applied in a dose volume of 25 μl per wound. Each individual mouse had surgery for two wounds located symmetrical to the dorsal midline using 8 mm diameter punch biopsy devices.
# Topical Compositions A2 and A4 or Vehicle Composition A were randomly administered to one or the other wound under a blinded protocol. This procedure enabled an intra-individual comparison between Compound 1 and its composition vehicle. Perfusion of the ulcer core as well as of the periulcer region was separately measured by Laser Speckle Contrast Imaging (LSCI)/Laser Speckle Contrast Analysis (LASCA) using a Perimed device. LASCA wound perfusion measurements of digital ulcers in SSc were previously shown to correlate with time to healing (Barsotti S et al Clin Rheumatol. (2020) 39(1):69-75).
# In detail, a single application of Topical Compositions A2 and A4 or Vehicle Composition A, each at a volume of 25 μl per wound was randomly administered either to the right or left of two full thickness cutaneous wounds per mouse generated by 8 mm punch biopsies and symmetrically to the dorsal midline, at 24 h after surgery. […]
# Plasma protein binding = format: in vitro ADME; conditions: mouse, mice, read-out: unbound fraction (fu), plasma protein binding
# PDE5 = PDE5 (Homo sapiens, UniProt O76074); experiment: IC50 of Compound 1 (earlier effected measurements); format: biochemical
# [2] = Solubility screening of Compound 1 in various solvents/solvent systems; format: physicochemical; conditions: read-out: Determined Solubility
# Description: A solubility screening of Compound 1 was effected. […] In general, three potential approaches where covered: i) polar organic co-solvents, ii) solubilization by surfactants and iii) oils which may, in particular, serve as a basis of an emulsion gel. A phosphate buffer of pH 6.5 with low molarity was used as this salt and pH is suitable for application on wounds. It is of note that the resulting pH of the screened systems is about 7.3.
# [3] = Plasma concentrations after topical, on wound administration (satellite study, LC-MS/MS); format: in vivo, C57BL/6J mice
# Procedure: In order to address the systemic exposure following topical, on wound administration of Compound 1, in a satellite study, plasma concentrations of Compound 1 was measured. To this end, eight male C57BL/6J mice (12 weeks of age, body weight 26.8±0.4 g (Mean±SD)) underwent surgery for generation of one full thickness, excisional, cutaneous wounds, in an identical procedure as described above. The study was performed in C57BL/6J mice due to limited availability of uPAR−/− mice. As described before, Compound 1 (in form of Topical Composition A2) was added in a dose volume of 25 μl to the wounds as a single dose. The dose related to body weight was approximately 0.565 μg/kg (from a total of 25 μl of 1 μM Compound 1 per mouse). Peripheral venous blood was sampled from the tail tip (or by cardiac puncture for the final sampling) in four mice at time points (min) 1, 5, 15, 30, 60 post administration of Compound 1 and in another four mice at time points (h) 1, 2, 4, 6, 24 post administration of Compound 1. Plasma was generated and Compound 1 measured by LC-MS/MS. The LLOQ for Compound 1 was at 800 pg/ml corresponding to 1.32 nM. […] Considering the plasma protein binding of Compound 1 in mice with unbound fractions (fu) of 0.08% for Compound 1 the unbound plasma concentrations should have been <[…] for Compound 1, corresponding to <[…] for Compound 1 when extrapolated to administration to two wounds per mice as this was done in the main efficacy study, under the assumption of dose linearity.
compound,measurement,setting,value
"CCCOc1ccc(S(=O)(=O)N2CCC(CCO[N+](=O)[O-])CC2)cc1-c1nn2c(CCC)c(/C=N/O)c(C)c2c(=O)[nH]1 [Compound 1, 2-[1-(3-{6-[(1E)-(hydroxyimino)methyl]-5-methyl-4-oxo-7-propyl-3H,4H-pyrrolo[2,1-f][1,2,4]triazin-2-yl}-4-propoxybenzenesulfonyl)piperidin-4-yl]ethyl nitrate]",solubility,"[1]; aqueous with cosolvent or surfactant or cyclodextrin, PEG400:benzyl alcohol:phosphate buffer (44:1:55) vol:vol, Phosphate buffer 12 mmol/L pH 6.7",0.861 µg/mL
same,solubility,"[1]; aqueous with cosolvent or surfactant or cyclodextrin, PEG400:benzyl alcohol:phosphate buffer (49:1:50) vol:vol, Phosphate buffer 12 mmol/L pH 6.7",2.18 µg/mL
same,solubility,"[1]; aqueous with cosolvent or surfactant or cyclodextrin, PEG400:benzyl alcohol:phosphate buffer (54:1:45) vol:vol, Phosphate buffer 12 mmol/L pH 6.7",5 µg/mL
same,solubility,"[1]; aqueous with cosolvent or surfactant or cyclodextrin, PEG400:benzyl alcohol:phosphate buffer (59:1:40) vol:vol, Phosphate buffer 12 mmol/L pH 6.7",12.8 µg/mL
same,solubility,"[1]; aqueous with cosolvent or surfactant or cyclodextrin, PEG400:benzyl alcohol:phosphate buffer (64:1:35) vol:vol, Phosphate buffer 12 mmol/L pH 6.7",37 µg/mL
same,solubility,"[1]; aqueous with cosolvent or surfactant or cyclodextrin, PEG400:benzyl alcohol:phosphate buffer (69:1:30) vol:vol, Phosphate buffer 12 mmol/L pH 6.7",112 µg/mL
same,solubility,"[1]; aqueous with cosolvent or surfactant or cyclodextrin, PEG400:benzyl alcohol:phosphate buffer (79:1:20) vol:vol, Phosphate buffer 12 mmol/L pH 6.7",882 µg/mL
same,solubility,"[1]; aqueous with cosolvent or surfactant or cyclodextrin, PEG400:benzyl alcohol:phosphate buffer (89:1:10) vol:vol, Phosphate buffer 12 mmol/L pH 6.7",1770 µg/mL
same,solubility,"[1]; organic solvent or mixture, PEG400:benzyl alcohol (99:1) vol:vol",12700 µg/mL
same,IC40 for relaxation of rat aortic rings,rat aortic rings,8000 nM
same,ulcer core perfusion compared to Vehicle Composition A,C57Bl/6J mice,increases perfusion of ulcer core
same,fraction unbound,Plasma protein binding,0.0008
same,IC50,PDE5,1.18 nM
same,solubility,"[2]; 1% poloxamer 407 in phosphate buffer, pH 6.5, aqueous with cosolvent or surfactant or cyclodextrin, 1% poloxamer 407 in PB, PB = Phosphate buffer 10 mmol/L pH 6.5",270 µg/mL
same,solubility,"[2]; 1% polysorbate 80 in phosphate buffer, pH 6.5, aqueous with cosolvent or surfactant or cyclodextrin, 1% polysorbate 80 in PB, PB = Phosphate buffer 10 mmol/L pH 6.5",77 µg/mL
same,solubility,"[2]; 3% polysorbate 80 in phosphate buffer, pH 6.5, aqueous with cosolvent or surfactant or cyclodextrin, 3% polysorbate 80 in PB, PB = Phosphate buffer 10 mmol/L pH 6.5",139 µg/mL
same,solubility,"[2]; 8% polysorbate 80 in phosphate buffer + 3% benzyl alcohol, pH 6.5, aqueous with cosolvent or surfactant or cyclodextrin, 8% polysorbate 80 in PB + 3% benzyl alcohol, PB = Phosphate buffer 10 mmol/L pH 6.5",56 µg/mL
same,solubility,"[2]; 8% polysorbate 80 in phosphate buffer + 10% MCT, pH 6.5, aqueous with cosolvent or surfactant or cyclodextrin, 8% polysorbate 80 in PB + 10% MCT, PB = Phosphate buffer 10 mmol/L pH 6.5",37 µg/mL
same,solubility,"[2]; 8% polysorbate 80 in phosphate buffer + 10% ethanol, pH 6.5, aqueous with cosolvent or surfactant or cyclodextrin, 8% polysorbate 80 in PB + 10% ethanol, PB = Phosphate buffer 10 mmol/L pH 6.5",43 µg/mL
same,solubility,"[2]; 8% polysorbate 80 in phosphate buffer + 10% poloxamer 407, pH 6.5, aqueous with cosolvent or surfactant or cyclodextrin, 8% polysorbate 80 in PB + 10% poloxamer 407, PB = Phosphate buffer 10 mmol/L pH 6.5",63 µg/mL
same,solubility,"[2]; 8% polysorbate 80 in phosphate buffer, pH 6.5, aqueous with cosolvent or surfactant or cyclodextrin, 8% polysorbate 80 in PB, PB = Phosphate buffer 10 mmol/L pH 6.5",67 µg/mL
same,solubility,"[2]; 10% poloxamer 407 in phosphate buffer, pH 6.5, aqueous with cosolvent or surfactant or cyclodextrin, 10% poloxamer 407 in PB, PB = Phosphate buffer 10 mmol/L pH 6.5",23.2 µg/mL
same,solubility,"[2]; PEG 400/phosphate buffer (30:70, vol:vol), pH 6.5, aqueous with cosolvent or surfactant or cyclodextrin, PEG 400/PB (30:70, vol:vol), PB = Phosphate buffer 10 mmol/L pH 6.5",1 µg/mL
same,solubility,"[2]; PEG 400/phosphate buffer (70:30, vol:vol), pH 6.5, aqueous with cosolvent or surfactant or cyclodextrin, PEG 400/PB (70:30, vol:vol), PB = Phosphate buffer 10 mmol/L pH 6.5",110 µg/mL
same,solubility,"[2]; isopropyl myristate (IPM), oil or lipid, Isopropyl myristate (IPM)",93 µg/mL
same,solubility,"[2]; medium chain triglycerides (MCT), oil or lipid, Medium chain triglycerides (MCT)",282 µg/mL
same,solubility,"[2]; octyldodecanol (Kollicream OD), oil or lipid, Octyldodecanol (Kollicream OD)",28 µg/mL
same,solubility,"[2]; pH 6.5, aqueous with cosolvent or surfactant or cyclodextrin, PEG 400/PB (30:70, vol:vol) + 3% benzyl alcohol, PB = Phosphate buffer 10 mmol/L pH 6.5",8 µg/mL
same,solubility,"[2]; pH 6.5, aqueous with cosolvent or surfactant or cyclodextrin, PEG 400/PB (30:70, vol:vol) + 3% polysorbate 80, PB = Phosphate buffer 10 mmol/L pH 6.5",20 µg/mL
same,solubility,"[2]; pH 6.5, aqueous with cosolvent or surfactant or cyclodextrin, PEG 400/PB (30:70, vol:vol) + 10% poloxamer 407, PB = Phosphate buffer 10 mmol/L pH 6.5",54 µg/mL
same,solubility,"[2]; polyethylene glycol PEG 400, organic solvent or mixture, Polyethylene glycol PEG 400",10500 µg/mL
same,unbound plasma concentration extrapolated to two wounds per mice,[3]; assumption of dose linearity,< 2120 nM
same,unbound plasma concentration,"[3]; calculated from LLOQ and fu, one wound per mouse",< 1060 nM
same,plasma concentration of Compound 1,"[3]; single on wound dose 25 μl Topical Composition A2 (approx. 0.565 μg/kg), 1 min to 24 h, all time points and mice, LLOQ 800 pg/ml",< 1.32 nM
